From patent US20090004185A1, “AMINO-SUBSTITUTED QUINAZOLINE DERIVATIVES AS INHIBITORS OF BETA-CATENIN/TCF-4 PATHWAY AND CANCER TREATMENT AGENTS” (WYETH, priority 2007, published 2009)

Assays:
SV40-Luc = SV40-Luc control luciferase reporter assay, SV 5A8 cell line (SV40-Luc and SV40-R-Luc), control for non-specific inhibitors; assay type: cell-based, human; details: Homo sapiens, SV5A8, 24 h, SV 5A8 cells derived from SW480; 24 hours of incubation with compound; ratio Firefly/Renilla luciferase
In short: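 SW480-derived lines with integrated reporters: SV 5A8 (SV40-Luc + SV40-R-Luc), Tcf 33.13 and Tcf 22C11 (Tcf-4-Luc + SV40-R-Luc). Compounds titrated onto cells for 24 h, final DMSO 0.316%. Firefly and Renilla luminescence read by dual-luciferase; firefly/Renilla ratio as % of control fitted for IC50.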

β-catenin/Tcf-4 = test: cells; assay type: cell-based; details: Homo sapiens, 24 hours of incubation with compound, ratio Firefly/Renilla luciferase
In short: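 SW480-derived lines with integrated reporters (Tcf-4-driven firefly luciferase; SV40 firefly as specificity control; SV40 Renilla for cell number/toxicity), treated 24 hours with titrated compounds, final 0.316% DMSO. Dual-luciferase read-out; firefly/Renilla ratio as % of control, duplicate plates, IC50 (nM) from curve fit.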

[1] = SW480, 24 h, Tcf 33.13 cells derived from SW480
[2] = Tcf22C11, 24 h, Tcf 22C11 cells derived from SW480

SMILES	melting point [°C]	IC50 (SV40-Luc) [nM]	IC50 (β-catenin/Tcf-4; [1]) [nM]	IC50 (β-catenin/Tcf-4; [2]) [nM]
O=C(Nc1ccc(CNc2nc(N3CCC3)nc3ccccc23)cc1)c1ccc(F)cc1 [Example 114, N-(4-{[(2-azetidin-1-ylquinazolin-4-yl)amino]methyl}phenyl)-4-fluorobenzamide]	249	> 5850	587	870
Cc1ccc2c(NCc3ccc(NC(=O)C4CCN(Cc5ccccc5)CC4)cc3)nc(N3CCCC3)nc2c1 [Example 133, 1-benzyl-N-(4-{[(7-methyl-2-pyrrolidin-1-ylquinazolin-4-yl)amino]methyl}phenyl)piperidine-4-carboxamide]	96	> 9350	793	669
Cc1ccc2c(NCc3ccc(NC(=O)C4CCN(Cc5ccc(C(F)(F)F)cc5)CC4)cc3)nc(N(C)C)nc2c1 [Example 256, N-[4-({[2-(dimethylamino)-7-methylquinazolin-4-yl]amino}methyl)phenyl]-1-[4-(trifluoromethyl)benzyl]piperidine-4-carboxamide]	126 to 128	> 8670	706	967
C/C=C/c1ccc2c(NCc3ccc(NC(=O)C4CCN(Cc5ccccc5)CC4)cc3)nc(N(C)C)nc2c1 [Example 151, 1-benzyl-N-{4-[({2-(dimethylamino)-7-[(1E)-prop-1-en-1-yl]quinazolin-4-yl}amino)methyl]phenyl}-piperidine-4-carboxamide]	154	> 2530	726	606
C=Cc1ccc2c(NCc3ccc(NC(=O)C4CCN(Cc5ccccc5)CC4)cc3)nc(N(C)C)nc2c1 [Example 150, 1-benzyl-N-[4-({[2-(dimethylamino)-7-vinylquinazolin-4-yl]amino}methyl)phenyl]piperidine-4-carboxamide]	180	> 2400	169	268
CC(C)(C)OC(=O)CNc1nc(NCc2ccc(NC(=O)c3ccc(F)cc3)cc2)c2ccccc2n1 [Example 126, tert-butyl N-[4-({4-[(4-fluorobenzoyl)amino]benzyl}amino)quinazolin-2-yl]glycinate]	96	> 2490	1070	1720
Cc1ccc2c(NCc3ccc(NC(=O)c4ccc(F)cc4)cc3)nc(NC3CCN(Cc4ccccc4)CC3)nc2c1 [Example 233, N-{4-[({2-[(1-benzylpiperidin-4-yl)amino]-7-methylquinazolin-4-yl}amino)methyl]phenyl}-4-fluorobenzamide]	135 to 138	> 4350	> 2180	> 4350
Cc1ccc2c(NCc3ccc(NC(=O)C4CCN(Cc5ccccc5)CC4)cc3)nc(N3CCCCCC3)nc2c1 [Example 131, N-(4-{[(2-azepan-1-yl-7-methylquinazolin-4-yl)amino]methyl}phenyl)-1-benzylpiperidine-4-carboxamide]	66	> 7870	966	1040

The remaining lines, values ahead:

melting point [°C]	IC50 (SV40-Luc) [nM]	IC50 (β-catenin/Tcf-4; [1]) [nM]	IC50 (β-catenin/Tcf-4; [2]) [nM]	SMILES
128	> 2350	699	798	CNc1nc(NCc2ccc(NC(=O)C3CCN(Cc4ccccc4)CC3)cc2)c2ccc(C)cc2n1 [Example 130, 1-benzyl-N-[4-({[7-methyl-2-(methylamino)quinazolin-4-yl]amino}methyl)phenyl]piperidine-4-carboxamide]
112 to 115	> 2470	292	408	Cc1ccc2c(NCc3ccc(NC(=O)c4ccc(F)cc4)cc3)nc(NCCc3ccccn3)nc2c1 [Example 232, 4-fluoro-N-{4-[({7-methyl-2-[(2-pyridin-2-ylethyl)amino]quinazolin-4-yl}amino)methyl]phenyl}benzamide]
192 to 194	> 2500	253	346	Cc1ccc2c(NCc3ccc(NC(=O)c4ccc(Cl)cc4)cc3)nc(N3CCCCCC3)nc2c1 [Example 198, N-(4-{[(2-azepan-1-yl-7-methylquinazolin-4-yl)amino]methyl}phenyl)-4-chlorobenzamide]
295 to 298	> 1310	255	284	CNc1nc(NCc2ccc(NC(=O)c3ccc(Br)cc3)cc2)c2ccc(C)cc2n1 [Example 238, 4-bromo-N-[4-({[7-methyl-2-(methylamino)quinazolin-4-yl]amino}methyl)phenyl]benzamide]
135 to 139	> 5170	448	451	Cc1ccc2c(NCc3ccc(NC(=O)c4ccc(F)cc4)cc3)nc(N3CCCCCC3)nc2c1 [Example 235, N-(4-{[(2-azepan-1-yl-7-methylquinazolin-4-yl)amino]methyl}phenyl)-4-fluorobenzamide]
189	> 2920	1140	1720	O=C(Nc1ccc(CNc2nc(NC3CC3)nc3ccccc23)cc1)c1ccc(F)cc1 [Example 121, N-[4-({[2-(cyclopropylamino)quinazolin-4-yl]amino}methyl)phenyl]-4-fluorobenzamide]
139	> 9790	649	1010	CNc1nc(NCc2ccc(NC(=O)c3ccc(Cl)cc3)cc2)c2cc(Br)cc(C)c2n1 [Example 66, N-[4-({[6-bromo-8-methyl-2-(methylamino)quinazolin-4-yl]amino}methyl)phenyl]-4-chlorobenzamide]
257 to 259	> 3030	793	900	CNc1nc(NCc2ccc(NC(=O)c3ccc(C)nc3)cc2)c2ccc(C)cc2n1 [Example 240, 6-methyl-N-[4-({[7-methyl-2-(methylamino)quinazolin-4-yl]amino}methyl)phenyl]nicotinamide]
